The structures appear in SMILES notation. Like-named read-outs stand apart in the source and are kept apart here.

For assay [1], the target named is T1, human thrombin (Homo sapiens, UniProt P00734). The experiment in a line: Amidolytic activity of thrombin (hydrolysis of chromogenic substrate D-Phe-Pip-Arg-pNA). It is filed as biochemical. Details: Thrombin, also known as an active plasma coagulation factor II; purchased Sigma-Aldrich Chemical Co. (St. Louis, MO, USA) T7009; host or cells: purified from human plasma. How it is done: All tested compounds were dissolved in 50 % DMSO to the initial concentration of 10 mM; other solutions of compounds were also prepared in 50 % DMSO (prepared in 50 mM TBS, pH 7.4). The final concentration of DMSO in thrombin samples was 5 %. To prepare thrombin control samples, the same volume of solvent (50 % DMSO prepared in 50 mM TBS, pH 7.4) was added as in the case of the compound volume and warmed for 10 min to 37 °C.
To each reaction well, 40 μl of 3 mM chromogenic substrate was added. To initiate the chromogenic reaction, 280 μl of control thrombin (without tested compounds) or thrombin after preincubation with a polyphenolic compound to every reaction well in the same moment was added. The absorbance value was monitored every 12 s for 10 min. The maximal velocity of the reaction (V max, Δm OD/min) for each absorbance curve was determined. IC50 value (parameter) for every polyphenolic compound from inhibition curves was estimated.

Assay [2] concerns the target T1, human thrombin. Nature of the assay: Analysis of thrombin inhibition parameters (Lineweaver–Burk curves). It is filed as biochemical. The conditions noted are these: for k cat: compound at IC50 concentration, k cat = V max/E 0, control 29.1; for Type of inhibition: from Lineweaver–Burk curves; for V max of chromogenic substrate hydrolysis by thrombin / K m of chromogenic substrate hydrolysis by thrombin: thrombin incubated with compound at IC50 concentration; for V max of chromogenic substrate hydrolysis by thrombin: control 30.7; for K m of chromogenic substrate hydrolysis by thrombin: control 158.7. On the set-up: Thrombin, also known as an active plasma coagulation factor II; purchased Sigma-Aldrich Chemical Co. (St. Louis, MO, USA) T7009. How it is done: Absorbance was monitored every 12 s for 10 min in a 96-well microplate reader. The velocity of reaction was expressed as the increase in product (pNA) over time (∆ μmol/min) using a computer program Mikcroplate Manager® 8 and the extinction coefficient of p-nitroaniline. […] Then, the Lineweaver–Burk ([1934]) curves for thrombin in the presence and in the absence of polyphenol compounds were plotted. The Lineweaver–Burk equation, which is a transformation of the Michaelis–Menten model, looks as follows: 1/V=Km/Vmax·1/[S]+1/Vmax

Assay [3] concerns the target T1, human thrombin. The experiment in a line: Thrombin-induced fibrinogen polymerization. The format is biochemical. Details: Thrombin, also known as an active plasma coagulation factor II; purchased Sigma-Aldrich Chemical Co. (St. Louis, MO, USA) T7009. The conditions noted are these: thrombin preincubated with compound; for Effect on thrombin ability to induce fibrinogen polymerization: 10 min 37 °C; for Concentration causing total inhibition of thrombin activity (fibrin polymerization): Vmax of fibrinogen polymerization at 595 nm. The method, then: In these preparations, to nine volumes of thrombin one volume of polyphenolic compounds was added (final thrombin concentration was 15.8 nM). All tested compounds were dissolved in 50 % DMSO to the initial concentration of 10 mM; other solutions of compounds were also prepared in 50 % DMSO (prepared in 50 mM TBS, pH 7.4). […] Polymerization of fibrin was monitored at 595 nm using a 96-well microtiter plate reader. To each reaction well of the microtiter plate, 100 μl of fibrinogen (3 mg/ml) in 50 mM TBS and 5 mM CaCl2, pH 7.4, were added. […] The maximal velocity of the polymerization process (V max, Δm OD/min) for each absorbance curve was determined (Nowak et al., [2007]).

For assay [4], the target named is T1, human thrombin. Nature of the assay: BIAcore (SPR) analysis of binding to immobilized thrombin. Particulars: for Response (RU): analyte 1,000 μM, thrombin immobilized on CM5 chip. On the set-up: Thrombin, also known as an active plasma coagulation factor II; purchased Sigma-Aldrich Chemical Co. (St. Louis, MO, USA) T7009. How it is done: The biosensor assays were performed using the BIAcore 1000 biosensor system. All biosensor analyses were performed with a phosphate-buffered saline (PBS), pH 7.4, as a running buffer. […] The immobilization of thrombin on a biosensor carboxylmethyl dextran surface was performed according to the BIA applications Handbook (BIAcore, [1994]). The process of protein immobilization was performed on a sensor chip CM5 surface by the positively charged functional groups of protein amino acids. The immobilization process consisted of four steps: preconcentration, activation, ligand immobilization and deactivation of the residual NHS esters. […] The temperature during the whole experiment was also constant and was set to 25.0 °C. […] Each of these solutions (10 μl) was injected into an empty sensor chip channel. […] The amount of injected activation mixture was modified, to regulate the amount of immobilized ligand. […] The conditions of the latter experiments were established by numerous pre-tests. The assessed parameters included: the buffer flow rate, the volume of analyte injection, the concentration of analytes, types and concentration of regenerators. […] For each injection of analyte solution, the volume used was 100 μl. After injection of analyte was completed, the dissociation step occurred and the level of the interaction ligand-analyte was measured. During dissociation, the particles non-covalently bound to the ligand were washed out from the working channel. […] To do these calculations, the formulas presented below were used: the association rate […]]; the dissociation rate -d[AB]/dt=kd·[AB]; the equilibrium constants: KA=[AB]/[A]·[B]=ka/kd KD=[A]·[B]/[AB]=kd/ka.

Assay [5] deals with T1, human thrombin. Nature of the assay: SDS-PAGE analysis of thrombin-induced cross-linked fibrin formation. The format is biochemical. Details: Thrombin, also known as an active plasma coagulation factor II; purchased Sigma-Aldrich Chemical Co. (St. Louis, MO, USA) T7009; host or cells: purified from human plasma. How it is done: In these preparations, to nine volumes of thrombin one volume of polyphenolic compounds was added (final thrombin concentration was 15.8 nM). All tested compounds were dissolved in 50 % DMSO to the initial concentration of 10 mM; other solutions of compounds were also prepared in 50 % DMSO (prepared in 50 mM TBS, pH 7.4). The final concentration of DMSO in thrombin samples was 5 %. To prepare thrombin control samples, the same volume of solvent (50 % DMSO prepared in 50 mM TBS, pH 7.4) was added as in the case of the compound volume and warmed for 10 min to 37 °C.
The reactions incubated at 37 °C were stopped after 5, 15 and 30 min by adding 150 μl of lysis buffer (0.125 M Tris/HCl, 4 % SDS, 8 M urea, 10 % β-mercaptoethanol, pH 6.8). Samples were subjected to SDS-PAGE (polyacrylamide concentration—7.5 %) using Mini-Protean Electrophoresis Cell (Bio-Rad, Hercules, CA). Proteins were stained with Coomassie Brilliant Blue R250 (CBB).

Assay [6] deals with human thrombin. The experiment in a line: Thrombin-induced platelet aggregation (turbidimetric). It is filed as cell-based. The method, then:
Blood samples in 0.32 % sodium citrate from healthy volunteers without cardiovascular disorders were collected, untreated with antiplatelet drugs. […] Platelets were isolated from PRP using BSA–Sepharose 2B gel filtration method according to Walkowiak et al. ([2000]). […] In these preparations, to nine volumes of thrombin one volume of polyphenolic compounds was added (final thrombin concentration was 15.8 nM). All tested compounds were dissolved in 50 % DMSO to the initial concentration of 10 mM; other solutions of compounds were also prepared in 50 % DMSO (prepared in 50 mM TBS, pH 7.4). […] The platelet aggregation was measured by turbidimetric method (Saluk-Juszczak et al., [2007]) using dual-channel Chrono-log optical aggregometer (Chronolog, USA). […] Platelet suspensions were pre-warmed at 37 °C with stirring.

The mark [7] stands for this setting: at 375 μM substrate concentration, compounds 0.1–1,000 μM, preincubation 10 min 37 °C, read-out: IC50, amidolytic activity of human thrombin.
[8] abbreviates: ten times IC50: cyanidin […], quercetin 15 μM, silybin 250 μM.

With `COc1cc(C2Oc3cc([C@H]4Oc5cc(O)cc(O)c5C(=O)[C@@H]4O)ccc3OC2CO)ccc1O` (stereo in doubt) [Silybin, silybin], the IC50 (commonly the point on the concentration scale where inhibition reaches its midpoint) at human thrombin [1] (setting [7]) is 25 µM. Besides, on human thrombin [2], the k cat was determined as 25.6 s⁻¹, the Type of inhibition entry is “competitive inhibitors”, the “V max of chromogenic substrate hydrolysis by thrombin” value is listed as 27 10^−6 mol/min and the “K m of chromogenic substrate hydrolysis by thrombin” value is recorded as 550.5 10^−6 M. Besides, on human thrombin [3], the “Effect on thrombin ability to induce fibrinogen polymerization” value was “inhibition of thrombin ability to induce fibrinogen polymerization” and the “Concentration causing total inhibition of thrombin activity (fibrin polymerization)” value is > 1,000 μM. Further, the “K A, equilibrium association constant” value on human thrombin [4] (5 sensorgrams, 50 to 1,000 μM) is 53900 M⁻¹. In addition, the Kd on human thrombin [4] (5 sensorgrams, 50 to 1,000 μM, read-out: K D, equilibrium dissociation constant) is 18.6 µM. Further, the kon on human thrombin [4] (5 sensorgrams, 50 to 1,000 μM, read-out: k a, association rate) is 7.11 M⁻¹ s⁻¹. Moreover, at human thrombin [4] (5 sensorgrams, 50 to 1,000 μM, read-out: k d, dissociation rate), the koff turned out to be 0.000132 s⁻¹. Moreover, the “Response (RU)” value on human thrombin [4] is reported as 1,424 RU. The “Effect on formation of γ–γ chains and α-polymers” value (shortened to “Effect on formation”) on human thrombin [5] (setting [8]) is “slightly reduced the formation of γ–γ chains and α-polymers”. Further, the “Platelet aggregation, % of control” value in the assay on human thrombin [6] (compound 1,000 μM preincubated with thrombin) came out at 43%.

For `O=C(O)Cc1ccc(O)cc1` [4-Hydroxyphenylacetic acid, 4-hydroxyphenylacetic acid], at human thrombin [1] (setting [7]), the half-inhibitory concentration (IC50) was greater than 1000 µM.

Consider `O=C(O)/C=C/c1ccc(O)c(O)c1` [Caffeic acid, caffeic acid], for which, at human thrombin [1] (setting [7]), the concentration for half-maximal inhibition (IC50) was greater than 1000 µM.

For the molecule `O=C(/C=C/c1ccc(O)c(O)c1)O[C@@H]1C[C@](O)(C(=O)O)C[C@@H](O)[C@H]1O` [Chlorogenic acid, chlorogenic acid], the half-inhibitory concentration (IC50) at human thrombin [1] (setting [7]) was greater than 1000 µM.

On to `O=C(O)/C=C/c1ccc(O)cc1` [Coumaric acid, coumaric acid], for which the IC50 on human thrombin [1] (setting [7]) is greater than 1000 µM.

As to `Oc1cc(O)c2cc(O)c(-c3ccc(O)c(O)c3)[o+]c2c1` [Cyanidin, cyanidin], on human thrombin [2], the k cat worked out at 28.7 s⁻¹, the Type of inhibition entry was “competitive inhibitors”, the “V max of chromogenic substrate hydrolysis by thrombin” value is listed as 30.3 10^−6 mol/min and the “K m of chromogenic substrate hydrolysis by thrombin” value was 600.6 10^−6 M. For the same molecule, on human thrombin [3], the “Effect on thrombin ability to induce fibrinogen polymerization” value is reported as “inhibition of thrombin ability to induce fibrinogen polymerization” and the “Concentration causing total inhibition of thrombin activity (fibrin polymerization)” value amounted to 5 µM. At human thrombin [4], the “Response (RU)” value is 2,251 RU. In addition, at human thrombin [5] (at IC50 concentration of amidolytic inhibition: cyanidin […], quercetin 1.5 μM), the “Effect on formation” value was “also inhibited the formation of γ–γ chains and α-polymers”. Also, the “Effect on formation” value at human thrombin [5] (setting [8]) is “significantly inhibited the formation of γ–γ chains and α-polymers”. Further, the “Platelet aggregation, % of control” value in the assay on human thrombin [6] (compound 5 μM preincubated with thrombin) stood at 10%.

`COc1cc(/C=C/C(=O)O)ccc1O` [Ferulic acid, ferulic acid]: the IC50 at human thrombin [1] (setting [7]) is greater than 1000 µM.

The molecule `O=C(O)c1cc(O)c(O)c(O)c1` [Gallic acid, gallic acid] registered a 50% inhibitory concentration (IC50) against human thrombin [1] greater than 1000 µM.

Take `O=c1c(-c2ccc(O)cc2)coc2cc(O)cc(O)c12` [Genistein, genistein]: at human thrombin [1], the IC50 was greater than 1000 µM.

`COc1ccc([C@@H]2CC(=O)c3c(O)cc(O)cc3O2)cc1O` [Hesperetin, hesperetin]: at human thrombin [1] (setting [7]), the IC50 was greater than 1000 µM.

`COc1ccc([C@@H]2CC(=O)c3c(O)cc(O[C@@H]4O[C@H](CO[C@@H]5O[C@@H](C)[C@H](O)[C@@H](O)[C@H]5O)[C@@H](O)[C@H](O)[C@H]4O)cc3O2)cc1O` [Hesperidin, hesperidin]: the half-inhibitory concentration (IC50) at human thrombin [1] (setting [7]) is greater than 1000 µM.

Regarding `O=C1C[C@@H](c2ccc(O)cc2)Oc2cc(O)cc(O)c21` [Naringenin, naringenin], the IC50 on human thrombin [1] (setting [7]) was greater than 1000 µM.

`C[C@@H]1O[C@@H](O[C@H]2[C@H](Oc3cc(O)c4c(c3)O[C@H](c3ccc(O)cc3)CC4=O)O[C@H](CO)[C@@H](O)[C@@H]2O)[C@H](O)[C@H](O)[C@H]1O` [Naringin, naringin]: the half-inhibitory concentration (IC50) on human thrombin [1] (setting [7]) was greater than 1000 µM.

In the case of `Oc1cc(O)c2c(c1)O[C@H](c1ccc(O)c(O)c1)[C@H](O)[C@H]2c1c(O)cc(O)c2c1O[C@H](c1ccc(O)c(O)c1)[C@H](O)C2` [Procyanidin B2, procyanidin B2], on human thrombin [1] (setting [7]), the IC50 is greater than 1000 µM.

Regarding `Oc1ccc(/C=C/c2cc(O)cc(O)c2)cc1` [Resveratrol, resveratrol], the IC50 on human thrombin [1] (setting [7]) was greater than 1000 µM.

Consider `C[C@@H]1O[C@@H](OC[C@H]2O[C@@H](Oc3c(-c4ccc(O)c(O)c4)oc4cc(O)cc(O)c4c3=O)[C@H](O)[C@@H](O)[C@@H]2O)[C@H](O)[C@H](O)[C@H]1O` [Rutin, rutin], for which the IC50 on human thrombin [1] (setting [7]) is greater than 1000 µM.

Source of the values: PMC3939009, “Thrombin inhibitory activity of some polyphenolic compounds” (Medicinal Chemistry Research, 2013).
